According to patent US20180256673A1, “METHODS FOR TREATING FUNGAL INFECTIONS” (priority 2015, published 2018):
Read-outs that look alike come from different tables or passages of the source. Starred links: 1 amine or outer side, 2 acyl side, 3 side chain; linkers in the order of their positions; H or OH if unused. Positions of bridges follow the written chain, without caps; N, C: chain ends. Non-standard residues stand in square brackets, D forms with d. Residues, ends and D or L forms follow the SMILES beside them. *: point of attachment. Orn(4R-OH,5R-OCH2CH2NMe3+) = C[N+](C)(C)CCO[C@@H](N[*:3])[C@H](O)C[C@H](N[*:1])C(=O)[*:2]; pTerphenylCO(4''-OnC5H11) = CCCCCOc1ccc(-c2ccc(-c3ccc(C(=O)*)cc3)cc2)cc1; hTyr(3S-OH,4S-OH) = N[C@H](C(=O)O)[C@H](O)[C@@H](O)c1ccc(O)cc1; Pro(3S-OH,4S-Me) = C[C@H]1CN[C@H](C(=O)O)[C@H]1O; Hyp = O=C(O)[C@@H]1C[C@@H](O)CN1

Columns and labels:
[1] = test system: C. krusei ATCC 6258, ATCC 14243; assay: Time-kill assay in vagina-simulative medium pH 4.0 (Table 20); assay type: cell-based, Candida krusei; conditions: two C. krusei strains; all concentrations (2-128 μg/mL)
Candida parapsilosis = assay: Broth microdilution of invasive fungal isolates (CLSI M27-A3/M38-A2); assay type: cell-based; conditions: 92 isolates
[2] = molecular target: 1,3-β-D-glucan synthase from C. albicans (Candida albicans, UniProt O13428, F641S); assay: Glucan synthase (GS) inhibition assay; conditions: IC50, DPL18; Fks1 F641S
[3] = molecular target: 1,3-β-D-glucan synthase from C. albicans (Candida albicans, UniProt O13428); assay: Glucan synthase (GS) inhibition assay
[4] = molecular target: 1,3-β-D-glucan synthase from C. albicans (Candida albicans, UniProt O13428, S645P); assay: Glucan synthase (GS) inhibition assay; conditions: IC50, DPL20; Fks1 S645P
[5] = test system: C. glabrata ATCC 90030, ATCC 2001; assay: microbe, parasite or virus in culture; assay type: cell-based, Candida glabrata; conditions: Nakaseomyces glabratus
C. parapsilosis = assay: Antifungal susceptibility testing (CLSI M27-S4); conditions: WT (19 isolates); 24 hr
Protocol: (§1) Antifungal susceptibility testing. Antifungal susceptibility testing was performed in triplicate for a collection of 95 Candida strains (20 C. albicans, 20 C. glabrata, 2 C. dubliniensis, 15 C. krusei, 19 C. parapsilosis, and 19 C. tropicalis) that included 30 isolates showing an echinocandin resistance (ER) phenotype (caspofungin-resistant) in accordance with the guidelines described in the Clinical and Laboratory Standards Institute (CLSI) document M27-S4. […] Stock solutions of the drugs were kept at −86° C.

C. albicans = assay: Mutant prevention concentration (MPC) determination; assay type: cell-based, Candida albicans; conditions: wild-type isolates; 24 hr, ~1×10^7 CFU/mL
C. albicans NRRL Y-477 = assay: Broth microdilution MIC (CLSI), Examples 3 and 4; conditions: Candida albicans
Protocol: Antifungal susceptibility testing. […] MIC assays were performed in triplicate.

C. dubliniensis = assay: Antifungal susceptibility testing (CLSI M27-S4), WT and echinocandin-resistant isolates; conditions: 24 hr
Protocol: as §1

[6] = test system: azole-resistant C. albicans (R357); assay: Immunosuppressed rat model of vulvovaginal candidiasis, vaginal CFU; assay type: in vivo, Candida albicans; conditions: once daily for 3 days, intravaginal 0.1 mL/rat (Compound 1 as 3% gel)
[7] = test system: C. glabrata vaginal isolates; assay: Susceptibility testing of VVC clinical isolates at pH 7 and 4 (CLSI M27-A3); assay type: cell-based, Candida glabrata; conditions: for MIC90: Nakaseomyces glabratus

1,3-β-D-glucan synthase from C. albicans (Candida albicans, UniProt O13428, F641S), sequence (O13428 entry or part of it F641S): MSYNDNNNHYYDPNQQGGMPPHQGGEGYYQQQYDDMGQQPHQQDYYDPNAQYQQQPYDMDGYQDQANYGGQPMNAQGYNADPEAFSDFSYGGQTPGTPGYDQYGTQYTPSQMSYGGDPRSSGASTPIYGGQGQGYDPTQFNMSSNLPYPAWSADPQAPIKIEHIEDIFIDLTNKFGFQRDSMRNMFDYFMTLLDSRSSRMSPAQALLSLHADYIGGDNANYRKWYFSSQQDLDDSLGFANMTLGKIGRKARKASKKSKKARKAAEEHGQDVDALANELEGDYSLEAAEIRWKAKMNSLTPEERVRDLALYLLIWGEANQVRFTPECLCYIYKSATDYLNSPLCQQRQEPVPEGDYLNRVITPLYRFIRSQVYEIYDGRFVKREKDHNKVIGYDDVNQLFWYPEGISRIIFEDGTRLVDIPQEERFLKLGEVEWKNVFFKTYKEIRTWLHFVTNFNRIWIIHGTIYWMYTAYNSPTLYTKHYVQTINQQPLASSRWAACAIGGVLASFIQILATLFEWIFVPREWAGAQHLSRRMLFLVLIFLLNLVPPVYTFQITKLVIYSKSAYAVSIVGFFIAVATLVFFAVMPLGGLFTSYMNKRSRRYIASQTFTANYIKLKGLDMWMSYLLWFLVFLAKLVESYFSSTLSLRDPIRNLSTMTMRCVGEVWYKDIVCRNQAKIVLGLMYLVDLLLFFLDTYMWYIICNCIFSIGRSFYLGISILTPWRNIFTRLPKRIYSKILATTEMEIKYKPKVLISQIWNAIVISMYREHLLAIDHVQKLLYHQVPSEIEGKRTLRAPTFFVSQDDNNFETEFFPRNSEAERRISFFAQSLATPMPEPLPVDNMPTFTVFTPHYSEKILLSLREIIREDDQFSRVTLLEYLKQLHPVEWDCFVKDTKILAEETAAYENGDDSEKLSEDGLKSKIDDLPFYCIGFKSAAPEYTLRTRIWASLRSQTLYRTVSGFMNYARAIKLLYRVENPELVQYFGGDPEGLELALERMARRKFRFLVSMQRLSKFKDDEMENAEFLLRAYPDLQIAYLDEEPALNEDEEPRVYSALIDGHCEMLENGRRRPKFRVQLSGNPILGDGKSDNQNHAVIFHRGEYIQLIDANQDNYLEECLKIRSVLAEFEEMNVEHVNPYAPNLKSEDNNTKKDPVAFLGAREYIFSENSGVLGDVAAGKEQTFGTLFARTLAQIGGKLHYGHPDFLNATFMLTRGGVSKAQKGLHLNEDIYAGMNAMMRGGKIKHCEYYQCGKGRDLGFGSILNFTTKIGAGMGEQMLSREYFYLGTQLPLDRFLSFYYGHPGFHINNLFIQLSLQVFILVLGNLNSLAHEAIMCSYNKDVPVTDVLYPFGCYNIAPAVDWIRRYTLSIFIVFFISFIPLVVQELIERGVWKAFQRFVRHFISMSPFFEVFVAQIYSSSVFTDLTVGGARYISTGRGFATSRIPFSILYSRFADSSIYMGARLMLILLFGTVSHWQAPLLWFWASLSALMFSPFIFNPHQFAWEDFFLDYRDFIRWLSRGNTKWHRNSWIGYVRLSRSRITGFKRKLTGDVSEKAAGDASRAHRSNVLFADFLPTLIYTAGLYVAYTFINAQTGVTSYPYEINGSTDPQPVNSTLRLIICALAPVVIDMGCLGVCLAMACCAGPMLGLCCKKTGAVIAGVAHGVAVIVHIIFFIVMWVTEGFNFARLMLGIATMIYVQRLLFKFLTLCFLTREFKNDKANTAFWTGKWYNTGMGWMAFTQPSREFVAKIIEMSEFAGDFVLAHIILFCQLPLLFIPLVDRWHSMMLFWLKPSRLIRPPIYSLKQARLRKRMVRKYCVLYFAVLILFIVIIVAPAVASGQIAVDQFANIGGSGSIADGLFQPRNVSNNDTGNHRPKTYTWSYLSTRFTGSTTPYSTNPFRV
1,3-β-D-glucan synthase from C. albicans (Candida albicans, UniProt O13428, S645P), sequence (O13428 entry or part of it S645P): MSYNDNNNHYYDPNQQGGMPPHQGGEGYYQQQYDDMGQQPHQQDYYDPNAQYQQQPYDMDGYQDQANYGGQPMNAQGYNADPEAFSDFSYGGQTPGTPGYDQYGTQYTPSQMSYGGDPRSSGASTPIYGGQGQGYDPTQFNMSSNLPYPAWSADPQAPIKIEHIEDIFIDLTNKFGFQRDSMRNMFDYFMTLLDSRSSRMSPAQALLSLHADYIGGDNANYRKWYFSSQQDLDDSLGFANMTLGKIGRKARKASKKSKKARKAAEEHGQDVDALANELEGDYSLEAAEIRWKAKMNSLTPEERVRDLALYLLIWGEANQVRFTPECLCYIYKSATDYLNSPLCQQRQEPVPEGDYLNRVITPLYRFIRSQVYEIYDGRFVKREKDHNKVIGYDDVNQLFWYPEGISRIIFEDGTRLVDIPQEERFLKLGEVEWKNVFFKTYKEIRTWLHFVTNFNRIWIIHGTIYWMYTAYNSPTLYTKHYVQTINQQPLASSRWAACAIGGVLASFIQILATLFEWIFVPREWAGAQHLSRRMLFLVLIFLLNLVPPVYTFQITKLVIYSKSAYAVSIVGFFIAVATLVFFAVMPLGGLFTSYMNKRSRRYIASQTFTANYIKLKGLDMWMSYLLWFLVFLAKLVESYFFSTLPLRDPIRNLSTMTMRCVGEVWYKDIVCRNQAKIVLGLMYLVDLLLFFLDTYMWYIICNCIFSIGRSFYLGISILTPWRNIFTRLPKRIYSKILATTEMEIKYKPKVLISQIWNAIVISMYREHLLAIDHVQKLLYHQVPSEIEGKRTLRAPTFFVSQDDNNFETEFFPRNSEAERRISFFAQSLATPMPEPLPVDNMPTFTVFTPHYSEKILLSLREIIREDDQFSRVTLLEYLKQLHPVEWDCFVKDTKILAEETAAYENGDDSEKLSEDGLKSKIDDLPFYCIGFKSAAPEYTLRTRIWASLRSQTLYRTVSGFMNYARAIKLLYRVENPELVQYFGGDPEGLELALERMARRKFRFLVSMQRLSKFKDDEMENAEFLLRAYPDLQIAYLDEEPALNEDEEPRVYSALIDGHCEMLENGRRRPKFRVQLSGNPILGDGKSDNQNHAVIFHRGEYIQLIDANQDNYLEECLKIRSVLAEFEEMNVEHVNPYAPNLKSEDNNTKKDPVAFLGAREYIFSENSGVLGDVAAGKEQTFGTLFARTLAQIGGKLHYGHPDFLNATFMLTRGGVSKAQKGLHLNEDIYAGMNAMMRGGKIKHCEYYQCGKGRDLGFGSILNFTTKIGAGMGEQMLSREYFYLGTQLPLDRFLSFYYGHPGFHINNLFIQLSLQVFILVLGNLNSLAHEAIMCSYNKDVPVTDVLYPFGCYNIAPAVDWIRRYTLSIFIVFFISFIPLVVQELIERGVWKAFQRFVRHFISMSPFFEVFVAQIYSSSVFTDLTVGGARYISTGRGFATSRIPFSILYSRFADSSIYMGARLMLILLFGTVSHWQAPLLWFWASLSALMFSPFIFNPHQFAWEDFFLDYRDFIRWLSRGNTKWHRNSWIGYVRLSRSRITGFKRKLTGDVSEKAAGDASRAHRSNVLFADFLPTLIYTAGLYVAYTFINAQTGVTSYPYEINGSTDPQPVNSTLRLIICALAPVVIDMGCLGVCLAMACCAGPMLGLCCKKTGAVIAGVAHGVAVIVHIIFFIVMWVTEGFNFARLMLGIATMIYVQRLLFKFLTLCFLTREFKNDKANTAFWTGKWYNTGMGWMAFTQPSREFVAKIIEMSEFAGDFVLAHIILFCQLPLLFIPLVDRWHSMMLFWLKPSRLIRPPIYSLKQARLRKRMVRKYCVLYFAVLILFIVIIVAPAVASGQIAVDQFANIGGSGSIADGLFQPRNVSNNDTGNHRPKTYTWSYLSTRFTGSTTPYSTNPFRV

SMILES: CCCCCOc1ccc(-c2ccc(-c3ccc(C(=O)N[C@H]4C[C@@H](O)[C@@H](OCC[N+](C)(C)C)NC(=O)[C@@H]5[C@@H](O)[C@@H](C)CN5C(=O)[C@H]([C@@H](C)O)NC(=O)[C@H]([C@H](O)[C@@H](O)c5ccc(O)cc5)NC(=O)[C@@H]5C[C@@H](O)CN5C(=O)[C@H]([C@@H](C)O)NC4=O)cc3)cc2)cc1 [Compound 1] ({pTerphenylCO(4''-OnC5H11)}-[Orn(4R-OH,5R-OCH2CH2NMe3+)]T[Hyp][hTyr(3S-OH,4S-OH)]T[Pro(3S-OH,4S-Me)]; lactam 1-C)
- time at which cidality (≥3-log reduction in CFU) was achieved [1]: < 24 h
- Cumulative % of isolates inhibited at MIC 0.5 μg/mL (Candida parapsilosis): (23.9) %
- Cumulative % of isolates inhibited at MIC 1 μg/mL (Candida parapsilosis): (62.0) %
- Cumulative % of isolates inhibited at MIC 2 μg/mL (Candida parapsilosis): (98.9) %
- Cumulative % of isolates inhibited at MIC 4 μg/mL (Candida parapsilosis): (100.0) %
- Number of isolates inhibited at MIC 0.5 μg/mL (Candida parapsilosis): 22
- Number of isolates inhibited at MIC 1 μg/mL (Candida parapsilosis): 35
- Number of isolates inhibited at MIC 2 μg/mL (Candida parapsilosis): 34
- Number of isolates inhibited at MIC 4 μg/mL (Candida parapsilosis): 1
- MIC50 (Candida parapsilosis; Lodderomyces parapsilosis, read-out: MIC50): 1 µg/mL
- MIC90 (Candida parapsilosis; Lodderomyces parapsilosis, read-out: MIC90): 2 µg/mL
- IC50 [2]: 283 nM
- IC50 ([3]; IC50, DPL1002, WT): 11.6 nM
- IC50 ([3]; IC50, glucan synthase, ATCC 90028, WT): 11.4 nM
- IC50 ([3]; glucan synthase, DPL22, Fks1p S645P/S): 24.5 nM
- IC50 [4]: 2150 nM
- MIC ([5]; 48 h, ATCC 90030 P20-1, selecting drug ANID, Fks2 HS1 D666I, 48 h read): 2 µg/mL
- MIC ([5]; ATCC 2001 P20-2, selecting drug CAS): 2 µg/mL
- MIC ([5]; ATCC 2001 P20-2, selecting drug CMP1): 1 µg/mL
- MIC ([5]; ATCC 90030 P20-2, selecting drug CMP1): 1 µg/mL
- MIC ([5]; read-out: MIC P20, ATCC 2001, total population after 20 passages with the selecting drug, MIC of selecting drug): 1 µg/mL
- MIC ([5]; read-out: MIC P20, ATCC 90030, total population after 20 passages with the selecting drug, MIC of selecting drug): 1 µg/mL
- MIC median (range) (C. parapsilosis): 2 (2-4) mg/L
- MPC (C. albicans): 16 µg/mL
- MIC (C. albicans NRRL Y-477; NRRLY477): 0.25 µg/mL
- MIC (C. albicans NRRL Y-477; NRRLY477, 24 h, read-out: Broth MIC): 0.03 µg/mL
- MIC median (range) (C. dubliniensis; ER (1 isolate)): 0.03 µg/mL
- MIC median (range) (C. dubliniensis; WT (1 isolate)): 0.03 µg/mL
- reduction in vaginal CFU compared with no treatment control ([6]; a week later, 8 days after treatment end (day 12)): > 3 log-fold
- reduction in vaginal CFU compared with no treatment control ([6]; one day after treatment end (day 5)): 3.8 log-fold
- Number of isolates at MIC 0.125 μg/mL ([7]; 21 VVC isolates, 24 h, pH 4): 2
- Number of isolates at MIC 0.25 μg/mL ([7]; 21 VVC isolates, 24 h, pH 4): 3
- Number of isolates at MIC 0.5 μg/mL ([7]; 21 VVC isolates, 24 h, pH 4): 15
- Number of isolates at MIC 2 μg/mL ([7]; 21 VVC isolates, 24 h, pH 4): 1
- Number of isolates at MIC 0.06 μg/mL ([7]; 21 VVC isolates, 24 h, pH 7): 3
- Number of isolates at MIC 0.125 μg/mL ([7]; 21 VVC isolates, 24 h, pH 7): 17
- Number of isolates at MIC 2 μg/mL ([7]; 21 VVC isolates, 24 h, pH 7): 1
- Number of isolates at MIC 0.25 μg/mL ([7]; 21 VVC isolates, 48 h, pH 4): 2
- Number of isolates at MIC 0.5 μg/mL ([7]; 21 VVC isolates, 48 h, pH 4): 8
- Number of isolates at MIC 1 μg/mL ([7]; 21 VVC isolates, 48 h, pH 4): 9
- Number of isolates at MIC 2 μg/mL ([7]; 21 VVC isolates, 48 h, pH 4): 2
- Number of isolates at MIC 0.06 μg/mL ([7]; 21 VVC isolates, 48 h, pH 7): 2
- Number of isolates at MIC 0.125 μg/mL ([7]; 21 VVC isolates, 48 h, pH 7): 16
- Number of isolates at MIC 0.25 μg/mL ([7]; 21 VVC isolates, 48 h, pH 7): 1
- Number of isolates at MIC 0.5 μg/mL ([7]; 21 VVC isolates, 48 h, pH 7): 1
- Number of isolates at MIC 2 μg/mL ([7]; 21 VVC isolates, 48 h, pH 7): 1
- MIC90 ([7]; 24 h, pH 4): 0.5 µg/mL
- MIC90 ([7]; 24 h, pH 7): 0.125 µg/mL
- MIC90 ([7]; 48 h, pH 4): 1 µg/mL
